The text below walks through data of ChEMBL document CHEMBL1133922, “Evolution of anti-HIV drug candidates. Part 2: Diaryltriazine (DATA) analogues” (Bioorg Med Chem Lett, 2001).

Type in all cases: functional, organism-based
Common to all, as to details: Human immunodeficiency virus 1, MT4

The test system of test [1] is Human immunodeficiency virus 1. The test can be described thus: Inhibitory activity against 103N strain of HIV-I in MT-4 cell was determined.
In test [2] the test system is Human immunodeficiency virus 1. The test can be described thus: Inhibitory activity against 181C strain of HIV-I in MT-4 cell was determined.
Test [3] has as its system Human immunodeficiency virus 1. As to the kind of experiment: Inhibitory activity against LAI strain of HIV-I in MT-4 cell was determined.
The test system of test [4] is Human immunodeficiency virus 1. As to the kind of experiment: Inhibitory activity against 100I strain of HIV-I in MT-4 cell was determined.
For test [5], the system named is Human immunodeficiency virus 1. The test can be described thus: Inhibitory activity against 188L strain of HIV-1 in MT-4 cell was determined.

`COc1cccc(OC)c1Oc1nc(N)nc(Nc2ccc(C#N)cc2)n1`: the figures for the IC50 in test [1], in test [2] and in test [3] were 526 nM, 1560 nM and 31 nM, respectively.
The matching figures for `Cc1cc(N)cc(C)c1Oc1nc(N)nc(Nc2ccc(C#N)cc2)n1`: more than 100000 nM, more than 100000 nM and 7830 nM.
For the compound `Cc1cc(Br)c(Oc2ncnc(Nc3ccc(C#N)cc3)n2)c(Br)c1`, the half-maximal inhibitory concentration (IC50) was 16 nM in test [4]; 6 nM in test [1]; 40 nM in test [2]; 398 nM in test [5]; 1.3 nM in test [3].
As for `CC(C)NC(=O)Nc1nc(Cc2c(Cl)cccc2Cl)nc(Nc2ccc(C#N)cc2)n1`, the IC50 in test [4] came to 35100 nM; in test [1], 7550 nM; in test [2], 43800 nM; in test [3], 379 nM.
For the compound `Cc1cc(I)cc(C)c1Oc1nc(N)nc(Nc2ccc(C#N)cc2)n1`, the IC50 was 204 nM in test [4]; 10 nM in test [1]; 68 nM in test [2]; 75 nM in test [5]; 30 nM in test [3].
Consider `N#Cc1ccc(Nc2nc(Cc3c(Cl)cccc3Cl)nc(N3CCOCC3)n2)cc1`, for which, in test [3], the IC50 turned out to be 194 nM.
Consider `N#Cc1ccc(Nc2nc(N)nc(Oc3c(Cl)cc(F)cc3Cl)n2)cc1`, for which the IC50 came to 706 nM in test [4]; 65 nM in test [1]; 259 nM in test [2]; 1020 nM in test [5]; 7.3 nM in test [3].
Consider `CN(C)CCNc1nc(Cc2c(Cl)cccc2Cl)nc(Nc2ccc(C#N)cc2)n1`, for which the IC50 in test [4] came out at 1260 nM; in test [1] it was 21 nM; in test [2], 379 nM; in test [5] it was 297 nM; in test [3], 5 nM.
The matching figures for `N#Cc1ccc(Nc2nc(N)nc(Cc3c(Cl)cccc3Cl)n2)cc1`: 398 nM, 40 nM, 200 nM, 316 nM and 6.3 nM.
The matching figures for `N#Cc1ccc(Nc2nc(N)nc(Oc3c(F)cc(F)cc3F)n2)cc1`: 216 nM, 87 nM, 3650 nM, 8950 nM and 51 nM.
Turning to `C[S+]([O-])c1nc(Cc2c(Cl)cccc2Cl)nc(Nc2ccc(C#N)cc2)n1` (configuration not stated), the IC50 in test [1] was 15500 nM; in test [2] it was 68500 nM; in test [3] it was 1550 nM.
As for `CN(C)CCOc1nc(Cc2c(Cl)cccc2Cl)nc(Nc2ccc(C#N)cc2)n1`, the IC50 in test [4] was determined as 1080 nM; in test [1] it was 37 nM; in test [2] it was 1390 nM; in test [5] it was 315 nM; in test [3] it was 5.5 nM.
`N#Cc1ccc(Nc2nc(N)nc(Cc3ccccc3)n2)cc1`: the IC50 in test [4] was 8070 nM; in test [1], 8470 nM; in test [2], more than 100000 nM; in test [3], 285 nM.
For `CCOC(=O)Nc1nc(Cc2c(Cl)cccc2Cl)nc(Nc2ccc(C#N)cc2)n1`, the IC50 was determined as 1640 nM in test [4]; 548 nM in test [1]; 1320 nM in test [2]; 1730 nM in test [5]; 12 nM in test [3].
For `CONc1nc(Cc2c(Cl)cccc2Cl)nc(Nc2ccc(C#N)cc2)n1` the same measures were 1380 nM, 82 nM, 62.8 nM, 804 nM and 6.2 nM.
Regarding `CN(C)c1nc(Cc2c(Cl)cccc2Cl)nc(Nc2ccc(C#N)cc2)n1`, the IC50 was determined as 32200 nM in test [4], 4690 nM in test [1], 13400 nM in test [2] and 166 nM in test [3].
Take `N#Cc1ccc(Nc2nc(N)nc(Oc3c(Cl)cc(Cl)cc3Cl)n2)cc1`: the IC50 is 87 nM in test [4]; 12 nM in test [1]; 62 nM in test [2]; 502 nM in test [5]; 2.4 nM in test [3].
For `Cc1cc([N+](=O)[O-])cc(C)c1Oc1nc(N)nc(Nc2ccc(C#N)cc2)n1` the same measures were 330 nM, 8 nM, 57 nM, 123 nM and 2 nM.
The matching figures for `N#Cc1ccc(Nc2nc(Cc3c(Cl)cccc3Cl)nc(NN)n2)cc1`: 5830 nM, 1740 nM, 5830 nM, 7320 nM and 610 nM.
For the compound `CON(C)c1nc(Cc2c(Cl)cccc2Cl)nc(Nc2ccc(C#N)cc2)n1`, half-maximal inhibition in test [3] (IC50) was put at 86 nM. This counts as double-digit nanomolar.
In the case of `CC(=O)Nc1nc(Cc2c(Cl)cccc2Cl)nc(Nc2ccc(C#N)cc2)n1`, the IC50 in test [4] was determined as 100000 nM; in test [1], 40 nM; in test [2], 100000 nM; in test [5], 158 nM; in test [3], 16 nM.
Regarding `N#Cc1ccc(Nc2nc(S)nc(Cc3c(Cl)cccc3Cl)n2)cc1`, the IC50 is 723 nM in test [1], 1610 nM in test [2] and 94 nM in test [3].
With `Cc1cc(C)cc(Cc2nc(N)nc(Nc3ccc(C#N)cc3)n2)c1`, the IC50 in test [4] was 77900 nM; in test [1], 5080 nM; in test [2], 6370 nM; in test [5] it was more than 100000 nM; in test [3], 91 nM.
In test [3], `CCCNc1nc(Cc2c(Cl)cccc2Cl)nc(Nc2ccc(C#N)cc2)n1` yielded an IC50 of 849 nM.
As to `N#Cc1ccc(Nc2nc(N)nc(Oc3c(Cl)cccc3Cl)n2)cc1`, the IC50 in test [4] amounted to 384 nM; in test [1] it was 82 nM; in test [2] it was 279 nM; in test [5], 4570 nM; in test [3] it was 3.1 nM.
Regarding `CSc1nc(Cc2c(Cl)cccc2Cl)nc(Nc2ccc(C#N)cc2)n1`, the results for the IC50 in test [1], in test [2] and in test [3] were 336 nM, 2350 nM and 18 nM, respectively.
The matching figures for `N#Cc1ccc(Nc2nc(F)nc(Cc3c(Cl)cccc3Cl)n2)cc1`: 52600 nM, 100000 nM and 5260 nM.
The matching figures for `N#Cc1ccc(Nc2nc(Cc3c(Cl)cccc3Cl)nc(N=[N+]=[N-])n2)cc1`: 224 nM, 1140 nM and 14 nM.
Consider `COc1nc(Cc2c(Cl)cccc2Cl)nc(Nc2ccc(C#N)cc2)n1`, for which the concentration for half-maximal inhibition (IC50) in test [4] worked out at 1150 nM; in test [1], 231 nM; in test [2] it was 1450 nM; in test [5], 1550 nM; in test [3] it was 12 nM.
The matching figures for `N#Cc1ccc(Nc2nc(Cc3c(Cl)cccc3Cl)nc(NO)n2)cc1`: 107 nM, 13 nM, 38 nM, 26 nM and 2.4 nM.
The matching figures for `N#Cc1ccc(Nc2nc(N)nc(Cc3c(Cl)cc(Cl)cc3Cl)n2)cc1`: 221 nM, 16 nM, 6.2 nM, 161 nM and 1.4 nM.
For `N#Cc1ccc(Nc2nc(N)nc(Cc3ccccc3Cl)n2)cc1` the same measures were 2650 nM, 400 nM, 2570 nM, 7370 nM and 130 nM.
In the case of `N#Cc1ccc(Nc2nc(Cl)nc(Cc3c(Cl)cccc3Cl)n2)cc1`, the IC50 worked out at 10000 nM in test [1], 10000 nM in test [2] and 1080 nM in test [3].
As to `CNc1nc(Cc2c(Cl)cccc2Cl)nc(Nc2ccc(C#N)cc2)n1`, the IC50 in test [4] stood at 1160 nM; in test [1], 137 nM; in test [2], 440 nM; in test [5], 1020 nM; in test [3], 7 nM.
The matching figures for `N#Cc1ccc(Nc2nc(N)nc(Cc3c(Cl)ccc(Cl)c3Cl)n2)cc1`: 416 nM, 63 nM, 286 nM, 265 nM and 3 nM.
The matching figures for `N#Cc1ccc(Nc2nc(N)nc(Cc3ccc(Cl)cc3Cl)n2)cc1`: 2100 nM, 274 nM, 791 nM, 2320 nM and 14 nM.
The matching figures for `N#Cc1ccc(Nc2nc(N)nc(Oc3c(Br)cc(Br)cc3Br)n2)cc1`: 131 nM, 17 nM, 61 nM, 619 nM and 5.4 nM.
Regarding `Cc1cc(Br)cc(Cl)c1Oc1nc(N)nc(Nc2ccc(C#N)cc2)n1`, the IC50 turned out to be 59 nM in test [4]; 6 nM in test [1]; 35 nM in test [2]; 103 nM in test [5]; 2.1 nM in test [3].
For `CC(=N)Nc1nc(Cc2c(Cl)cccc2Cl)nc(Nc2ccc(C#N)cc2)n1` the same measures were 611 nM, 40 nM, 210 nM, 358 nM and 2.7 nM.
The matching figures for `CN(C)/C=N\c1nc(Cc2c(Cl)cccc2Cl)nc(Nc2ccc(C#N)cc2)n1`: 631 nM, 16 nM, 316 nM, 251 nM and 2.5 nM.
For `Cc1cc(C)c(Sc2nc(N)nc(Nc3ccc(C#N)cc3)n2)c(C)c1`, the IC50 in test [4] is 64 nM; in test [1], 6 nM; in test [2], 19 nM; in test [5], 36 nM; in test [3], 2.9 nM.
Take `N#Cc1ccc(Nc2nc(O)nc(Cc3c(Cl)cccc3Cl)n2)cc1`: the IC50 in test [1] was determined as 607 nM; in test [2], 2120 nM; in test [3] it was 160 nM.
Consider `Cc1ccc(C)c(Cc2nc(N)nc(Nc3ccc(C#N)cc3)n2)c1`, for which the IC50 in test [4] was 5860 nM; in test [1], 273 nM; in test [2], 1570 nM; in test [5] it was 1030 nM; in test [3] it was 3.1 nM.
The matching figures for `Cc1cccc(C)c1Cc1nc(N)nc(Nc2ccc(C#N)cc2)n1`: 1460 nM, 42 nM, 225 nM, 105 nM and 1.2 nM.
